In ChEMBL document CHEMBL5543088, “Targeting G-rich sequence to regulate the transcription of murine double minute (MDM) genes in triple-negative breast cancers” (Eur J Med Chem, 2024):
Calls of active or inactive are those of the source. No cut-off for these calls is given here.

How the values were obtained:
HCC1806 = assay: Inhibition of cell proliferation in human HCC1806 cells by MTT assay; assay type: functional, cell-based
HCC1937 [1] = assay: Inhibition of cell proliferation in human HCC1937 cells by MTT assay; assay type: functional, cell-based
MDA-MB-231 = assay: Inhibition of cell proliferation in human MDA-MB-231 cells by MTT assay; assay type: functional, cell-based
[2] = Inhibition of cell proliferation in HUVEC cells by MTT assay; assay type: toxicity, cell-based; conditions: human
[3] = Inhibition of cell proliferation in human HL7702 cells by MTT assay; assay type: toxicity, cell-based; conditions: HL7702 (L02) cells
RNA [4] = assay: Inhibition of wild-type G1 of MDM2 expressed in human HCC1937 cells upto 1 uM incubated for 24 hrs by luciferase reporter assay; assay type: cell-based
RNA [5] = assay: Induction of wild-type G5 of MDMX expressed in human HCC1937 cells upto 1 uM incubated for 24 hrs by luciferase reporter assay; assay type: cell-based; conditions: filed as activator
RNA [6] = assay: Binding affinity to biotin-labeled G1 of MDM2 (unknown origin) immobilized on SA biosensor assessed as dissociation constant by BLI assay; assay type: nucleic-acid assay, Homo sapiens
RNA [7] = assay: Binding affinity to biotin-labeled G5 of MDMX (unknown origin) immobilized on SA biosensor assessed as dissociation constant by BLI assay; assay type: nucleic-acid assay, Homo sapiens
RNA [8] = assay: Binding affinity to FAM/TAMRA-labeled G1 of MDM2 (unknown origin) assessed as thermal stability by measuring increase in melting temperature by FRET assay; assay type: nucleic-acid assay; conditions: Homo sapiens
RNA [9] = assay: Binding affinity to FAM/TAMRA-labeled G5 of MDMX (unknown origin) assessed as thermal stability by measuring increase in melting temperature by FRET assay; assay type: nucleic-acid assay; conditions: Homo sapiens
Quadruplex DNA [10] = assay: Binding affinity to c-myc DNA G-quadruplex (unknown origin) assessed as thermal stability by measuring increase in melting temperature by FRET assay; assay type: nucleic-acid assay
Quadruplex RNA [11] = assay: Binding affinity to NRAS RNA G-quadruplex (unknown origin) assessed as thermal stability by measuring increase in melting temperature by FRET assay; assay type: nucleic-acid assay
Quadruplex DNA [12] = assay: Binding affinity to biotin-labeled c-myc DNA G-quadruplex (unknown origin) immobilized on SA biosensor assessed as dissociation constant by BLI assay; assay type: nucleic-acid assay
HCC1937 [13] = assay: Downregulation of MDM2 level in human HCC1937 cells upto 3 uM incubated for 24 hrs by Western blot analysis; assay type: functional, cell-based
HCC1937 [14] = assay: Downregulation of MDMX level in human HCC1937 cells upto 3 uM incubated for 24 hrs by Western blot analysis; assay type: functional, cell-based
HCC1937 [15] = assay: Effect on cell proliferation in human HCC1937 cells overexpressing BLM assessed as cell survival at 6 uM; assay type: functional, cell-based
RNA [16] = assay: Binding affinity to G1 of MDM2 (unknown origin) at 10 uM by CD spectrum assay; assay type: nucleic-acid assay; conditions: Homo sapiens
RNA [17] = assay: Binding affinity to G5 of MDMX (unknown origin) at 10 uM by CD spectrum assay; assay type: nucleic-acid assay; conditions: Homo sapiens, filed as activator
Quadruplex RNA [18] = assay: Binding affinity to biotin-labeled NRAS RNA G-quadruplex (unknown origin) immobilized on SA biosensor assessed as dissociation constant by BLI assay; assay type: nucleic-acid assay
DNA = assay: Binding affinity to biotin-labeled ss26 DNA (unknown origin) immobilized on SA biosensor assessed as dissociation constant by BLI assay; assay type: nucleic-acid assay
dsDNA = assay: Binding affinity to biotin-labeled ds26 DNA (unknown origin) immobilized on SA biosensor assessed as dissociation constant by BLI assay; assay type: nucleic-acid assay
RNA [19] = assay: Inhibition of wild-type G1 of MDM2 expressed in human HCC1937 cells upto 3 uM incubated for 24 hrs by luciferase reporter assay; assay type: cell-based
RNA [20] = assay: Induction of wild-type G5 of MDMX expressed in human HCC1937 cells upto 3 uM incubated for 24 hrs by luciferase reporter assay; assay type: cell-based; conditions: filed as activator
RNA [21] = assay: Inhibition of G1 mutant of MDM2 expressed in human HCC1937 cells upto 3 uM incubated for 24 hrs by luciferase reporter assay; assay type: cell-based
RNA [22] = assay: Induction of G5 mutant of MDMX expressed in human HCC1937 cells upto 3 uM incubated for 24 hrs by luciferase reporter assay; assay type: cell-based
HCC1937 [23] = assay: Downregulation of MDM2 mRNA level in human HCC1937 cells upto 3 uM by qPCR analysis; assay type: functional, cell-based
HCC1937 [24] = assay: Upregulation of MDMX mRNA level in human HCC1937 cells upto 3 uM by qPCR analysis; assay type: functional, cell-based
HCC1937 [25] = assay: Downregulation of MDM2 level in human HCC1937 cells upto 6 uM incubated for 24 hrs by Western blot analysis; assay type: functional, cell-based
HCC1937 [26] = assay: Upregulation of MDMX level in human HCC1937 cells upto 6 uM incubated for 24 hrs by Western blot analysis; assay type: functional, cell-based
HCC1937 [27] = assay: Induction of apoptosis in human HCC1937 cells assessed as increase in cleaved caspase-3 level upto 6 uM incubated for 24 hrs by Western blot analysis; assay type: functional, cell-based
HCC1937 [28] = assay: Effect on DNAPKcs phosphorylation at Ser2056 in human HCC1937 cells upto 6 uM incubated for 24 hrs by Western blot analysis; assay type: functional, cell-based
HCC1937 [29] = assay: Effect on H2AX phosphorylation at Ser139 in human HCC1937 cells upto 6 uM incubated for 24 hrs by Western blot analysis; assay type: functional, cell-based
HCC1937 [30] = assay: Inhibition of cell proliferation in human HCC1937 cells assessed as decrease in cell survival at 6 uM relative to control; assay type: functional
HCC1937 [31] = assay: Effect on cell proliferation in human HCC1937 cells overexpressing BLM assessed as cell survival at 6 uM relative to control; assay type: functional; conditions: read-out: Activity
RNA [32] = assay: Binding affinity to TAMRA-labeled wild-type G1 of MDM2 transfected in human HCC1937 cells at 3 uM incubated for 6 hrs by BG4 antibody based analysis; assay type: cell-based
RNA [33] = assay: Binding affinity to TAMRA-labeled G1 mutant of MDM2 transfected in human HCC1937 cells at 3 uM incubated for 6 hrs by BG4 antibody based analysis; assay type: cell-based
RNA [34] = assay: Binding affinity to TAMRA-labeled wild-type G5 of MDMX transfected in human HCC1937 cells at 3 uM incubated for 6 hrs by BG4 antibody based analysis; assay type: cell-based; conditions: filed as activator
RNA [35] = assay: Binding affinity to TAMRA-labeled G5 mutant of MDMX transfected in human HCC1937 cells at 3 uM incubated for 6 hrs by BG4 antibody based analysis; assay type: cell-based
HCC1937 [36] = assay: Inhibition of cell proliferation in siMDM2-treated human HCC1937 cells by MTT assay; assay type: functional, cell-based; conditions: dose <= 6.0 µM
HCC1937 [37] = assay: Inhibition of cell proliferation in Nutlin3a-treated human HCC1937 cells by MTT assay; assay type: functional, cell-based
HCC1937 [38] = assay: Inhibition of cell proliferation in siMDMX-treated human HCC1937 cells by MTT assay; assay type: functional, cell-based
HCC1937 [39] = assay: Upregulation of MDMX level in siMDM2-treated human HCC1937 cells upto 6 uM by Western blot analysis; assay type: functional, cell-based
HCC1937 [40] = assay: Upregulation of MDMX level in siMDMX-treated human HCC1937 cells upto 6 uM by Western blot analysis; assay type: functional, cell-based
HCC1937 [41] = assay: Downregulation of MDM2 level in siMDMX-treated human HCC1937 cells upto 6 uM by Western blot analysis; assay type: functional, cell-based
HCC1937 [42] = assay: Induction of apoptosis in siMDMX-treated human HCC1937 cells assessed as increase in cleaved caspase-3 level upto 6 uM by Western blot analysis; assay type: functional, cell-based
HCC1937 [43] = assay: Induction of apoptosis in siMDM2-treated human HCC1937 cells assessed as increase in cleaved caspase-3 level upto 6 uM by Western blot analysis; assay type: functional, cell-based
HCC1937 [44] = assay: Inhibition of apoptosis in siMDM2-treated human HCC1937 cells at 6 uM (reference value: 55.8 %); assay type: functional
HCC1937 [45] = assay: Induction of apoptosis in siMDMX-treated human HCC1937 cells at 6 uM (reference value: 55.8 %); assay type: functional

N=C(N)SCc1ccc([N+](=O)[O-])cc1
IC50 (HCC1806): > 50 µM | IC50 (HCC1937 [1]): > 50 µM | IC50 (MDA-MB-231): > 50 µM | IC50 [2]: > 50 µM | IC50 [3]: > 50 µM

N=C(N)SCC1c2ccccc2CCc2ccccc21
IC50 (HCC1806): > 50 µM | IC50 (HCC1937 [1]): > 50 µM | IC50 (MDA-MB-231): 48 µM | IC50 [2]: > 50 µM | IC50 [3]: > 50 µM

N=C(N)SCc1cccc2ccccc12
IC50 (HCC1806): > 50 µM | IC50 (HCC1937 [1]): > 50 µM | IC50 (MDA-MB-231): > 50 µM | IC50 [2]: > 50 µM | IC50 [3]: > 50 µM

N=C(N)SCc1ccc2ccccc2c1
IC50 (HCC1806): > 50 µM | IC50 (HCC1937 [1]): > 50 µM | IC50 (MDA-MB-231): > 50 µM | IC50 [2]: > 50 µM | IC50 [3]: > 50 µM

N=C(N)SCc1c2ccccc2cc2ccccc12
IC50 (HCC1806): 12.5 µM | IC50 (HCC1937 [1]): 16.8 µM | IC50 (MDA-MB-231): 6 µM | IC50 [2]: 9.6 µM | IC50 [3]: 20.7 µM

N=C(N)SCc1c2ccccc2c(Br)c2ccccc12
IC50 (HCC1806): 3.5 µM | IC50 (HCC1937 [1]): 6.4 µM | IC50 (MDA-MB-231): 8.2 µM | IC50 [2]: 20.3 µM | IC50 [3]: 24.5 µM

C[n+]1ccc(-c2c3nc(c(-c4cc[n+](C)cc4)c4ccc([nH]4)c(-c4cc[n+](C)cc4)c4ccc([nH]4)c(-c4cc[n+](C)cc4)c4nc2C=C4)C=C3)cc1
inhibition (RNA [4]): Active | Activity (RNA [5]): Active

c1ccc([P+](Cc2c3ccccc3cc3ccccc23)(c2ccccc2)c2ccccc2)cc1
Kd (RNA [6]): 10.6 µM | Kd (RNA [7]): 8.8 µM | ΔTm (RNA [8]): 24 °C | ΔTm (RNA [9]): 22 °C | ΔTm (Quadruplex DNA [10]): 16.5 °C | ΔTm (Quadruplex RNA [11]): 0.2 °C | Kd (Quadruplex DNA [12]): > 25 µM

Cc1c2ccccc2c(CSC(=N)N)c2ccccc12
IC50 (HCC1806): 6.9 µM | IC50 (HCC1937 [1]): 6.4 µM | IC50 (MDA-MB-231): 2.1 µM | IC50 [2]: 3.5 µM | IC50 [3]: 5 µM | ΔTm (Quadruplex RNA [11]): -0.2 °C | Activity (HCC1937 [13]): Active | Activity (HCC1937 [14]): Active | Activity (HCC1937 [15]): inactive

N=C(N)SCc1c2ccccc2nc2ccccc12
IC50 (HCC1806): > 50 µM | IC50 (HCC1937 [1]): > 50 µM | IC50 (MDA-MB-231): > 50 µM | IC50 [2]: > 50 µM | IC50 [3]: > 50 µM

Brc1c2ccccc2c(C[P+](c2ccccc2)(c2ccccc2)c2ccccc2)c2ccccc12.[Br-]
inhibition (HCC1937 [1]; dose <= 6.0 µM): Dose-Dependent Effect | ΔTm (RNA [8]): 33 °C | ΔTm (RNA [9]): 30 °C | Activity (RNA [16]): Active | Activity (RNA [17]): Active | ΔTm (Quadruplex DNA [10]): 18 °C | ΔTm (Quadruplex RNA [11]): 0.1 °C | Kd (Quadruplex DNA [12]): 15.6 µM | Kd (Quadruplex RNA [18]): 24 µM | Kd (DNA): 10.8 µM | Kd (dsDNA): 23.5 µM | inhibition (RNA [19]): Active | Activity (RNA [20]): Active | inhibition (RNA [21]): inactive | Activity (RNA [22]): inactive | Activity (HCC1937 [23]): Active | Activity (HCC1937 [24]): Active | Activity (HCC1937 [25]): Active | Activity (HCC1937 [26]): Active | Activity (HCC1937 [27]): Active | Activity (HCC1937 [28]): inactive | Activity (HCC1937 [29]): inactive | inhibition at 6 µM (HCC1937 [30]): 27.7% | viability at 6 µM (HCC1937 [31]): 85.3% | Activity (RNA [32]): Active | Activity (RNA [33]): inactive | Activity (RNA [34]): Active | Activity (RNA [35]): inactive | inhibition (HCC1937 [36]): inactive | inhibition (HCC1937 [37]): inactive | inhibition (HCC1937 [38]): Active | Activity (HCC1937 [39]): Active | Activity (HCC1937 [40]): Active | Activity (HCC1937 [41]): Active | Activity (HCC1937 [42]): Active | Activity (HCC1937 [43]): inactive | inhibition at 6 µM (HCC1937 [44]): 30.6% | Activity (HCC1937 [45]): ~70.4%

Cc1ccc(CSC(=N)N)cc1
IC50 (HCC1806): > 50 µM | IC50 (HCC1937 [1]): > 50 µM | IC50 (MDA-MB-231): > 50 µM | IC50 [2]: > 50 µM | IC50 [3]: > 50 µM

Cc1c2ccccc2c(C[P+](c2ccccc2)(c2ccccc2)c2ccccc2)c2ccccc12
Kd (RNA [6]): 9.8 µM | Kd (RNA [7]): 7.3 µM | ΔTm (RNA [8]): 25 °C | ΔTm (RNA [9]): 22 °C | ΔTm (Quadruplex DNA [10]): 17 °C | ΔTm (Quadruplex RNA [11]): -0.4 °C | Kd (Quadruplex DNA [12]): > 25 µM
